Literature values as cited in patent US20240141352A1, “CHAPERONIN-CONTAINING TCP-1 INHIBITORS FOR THE TREATMENT OF CANCER” (UNIVERSITY OF CENTRAL FLORIDA RESEARCH FOUNDATION, INC., priority 2021, published 2024).

What was measured:
[1] = test system: MDA-MB-231 cells; settings: MDA-MB-231 spheroids
[2] = target: T1, CCT2 subunit (Homo sapiens, UniProt P78371)
T1 sequence (P78371 1-535): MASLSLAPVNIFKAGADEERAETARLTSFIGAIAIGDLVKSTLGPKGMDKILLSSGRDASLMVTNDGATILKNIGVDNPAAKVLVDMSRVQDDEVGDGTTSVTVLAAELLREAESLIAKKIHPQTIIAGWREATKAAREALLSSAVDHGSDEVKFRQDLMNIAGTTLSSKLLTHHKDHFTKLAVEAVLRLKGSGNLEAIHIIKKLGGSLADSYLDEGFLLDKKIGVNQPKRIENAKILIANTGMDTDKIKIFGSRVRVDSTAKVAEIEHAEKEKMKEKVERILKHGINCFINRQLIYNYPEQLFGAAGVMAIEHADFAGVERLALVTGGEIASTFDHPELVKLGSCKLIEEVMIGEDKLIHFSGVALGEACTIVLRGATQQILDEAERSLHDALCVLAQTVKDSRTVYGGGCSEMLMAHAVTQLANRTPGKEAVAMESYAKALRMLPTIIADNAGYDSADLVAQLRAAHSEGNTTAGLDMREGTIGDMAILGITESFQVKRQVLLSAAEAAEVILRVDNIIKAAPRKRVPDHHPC

[3] = test system: breast and prostate tumors; settings: systemic delivery with polymeric nanoparticles
[4] = test system: cancer cells that highly express CCT

binding to CCT2 subunit [2] | Molecule | resistance of spheroids to treatment [1] | tumor regression [3] | cytotoxicity [4]
 | N.N.O=C([O-])C1(C(=O)[O-])CCC1.[Pt+2] [carboplatin] | increased resistance |  | 
 | COc1cccc2c1C(=O)c1c(O)c3c(c(O)c1C2=O)C[C@@](O)(C(=O)CO)C[C@@H]3O[C@H]1C[C@H](N)[C@H](O)[C@H](C)O1 [doxorubicin] | increased resistance |  | 
directly binds | VTIFVAGVLTASLTIWKKMG [CT20p] |  | regression | cytotoxic
